{"source": "patent US20120070511A1", "about": "“MITOCHONDRIAL INHIBITORS AND USES THEREOF” (priority 2009, published 2012)", "type_in_all_cases": "cell-based", "key": {"MM.1S and REH cell lines": {"test_system": "MM.1S and REH cell lines", "assay": "Mitochondrial membrane potential (JC-1) after CCCP", "conditions": "immediately after 10 μM CCCP", "procedure": "(§1) […]. A) ψm potential, B) mitochondrial Ca^2+ and C) cytoplasmic Ca^2+ levels were measured using the fluorochromes JC-1, X-rhod-1 and indo-1, respectively. After 10 min of initial baseline measurement, CCCP was added into each well to achieve a final concentration of 10 μM and changes in fluorescence intensity was assayed for up to 2 h. In the graphs the time point of CCCP addition is marked as ‘0’. The graph is an average of triplicate samples with +SD.\nAssaying mitochondrial function: Two parameters were assayed for mitochondrial function: Δψm and oxygen consumption. Δψm was estimated using […] (JC-1, Invitrogen, Carlsbad, Calif., USA). Oxygen consumption was measured in 3×10^6 cells using a Clark's electrode (Hansatech, Cambridge, UK)."}, "[1]": {"test_system": "CHOP/GADD153 and cleaved caspase 3 in MM.1S, 8226, KMS-11", "assay": "Western blot of CHOP/GADD153 and cleaved caspase 3 in 3 MM cell lines", "conditions": "CCCP", "procedure": ". Induction of UPR-mediated apoptosis following treatment of 3 MM cell lines with four different mitochondrial inhibitors for various time points was assayed by western blot analysis of CHOP and cleaved caspase 3.\n(§2) Western blot analysis: Western blots were performed. Membranes were probed with monoclonal rabbit anti-GRP94, anti GRP-78, anti-PDI, anti-CHOP/GADD153, anti-cleaved caspase 3 (Cell Signaling, Danvers, Mass., USA) and monoclonal mouse anti-β-actin (Sigma, St. Louis, Mo., USA)."}, "[2]": {"test_system": "non-myeloma cell lines (NALM6, MDA-MB-435, 143B, 1420)", "assay": "Measurement of cytoplasmic calcium (indo-1 fluorescence ratio 400/500 nm)", "conditions": "non-myeloma cell lines (oligomycin: all cell lines)", "procedure": "(§3) Measurement of cytoplasmic calcium: Cytoplasmic Ca^2+ concentration was estimated by using the cell permeant fluorochrome indo-1-AM (Invitrogen, Carlsbad, Calif.). When excited at 355 nm, the maximum emission of indo-1 shifts from 500 nm to 400 nm following its binding to free Ca^2+. Thus, the ratio of reading at 400 nm and 500 nm correlates with concentration of cytoplasmic Ca^2+. Experiments were performed in cells loaded with indo-1 by incubating them with 2.5 μM of this fluorochrome at 37° C. for 45 min. Cells were then centrifuged at 400 g for 5 min and resuspended in their growth medium followed by distribution of 100 μl of aliquots into 96 well optical bottom plates (Nalge Nunc, Int., Rochester, N.Y.) and fluorescence was measured by Spectra Max Gemini Plus (Molecular Devices, Sunnyvale, Calif.). The average of triplicates from untreated samples was used as control reading and increase in cytoplasmic Ca^2+ was calculated as percent increase from control samples."}, "[3]": {"test_system": "MM cell lines (MM1.S, 8226, KMS-11, U266)", "assay": "Measurement of cytoplasmic calcium (indo-1 fluorescence ratio 400/500 nm)", "conditions": "MM cell lines", "procedure": "as §3"}, "[4]": {"test_system": "multiple myeloma cell lines (MM.1S, 8226, KMS-11, U266)", "procedure": "(§4) Cytotoxicity assay: Cells were incubated for 24 hr at 37° C. in 5% CO2 at which time drug treatments began and continued for 24 hr. At this time attached cells were trypsinized and combined with their respective culture media while suspension cells were directly transferred to a tube followed by centrifugation at 400 g for 5 min. The pellets were resuspended in 1 ml of Hanks solution and analyzed by Vi-Cell (Beckman Coulter, Fullerton, Calif.) cell viability analyzer."}, "[5]": {"test_system": "non-myeloma cell lines (NALM6, 143B, MDA-MB-435, 1420)", "conditions": "higher concentrations; all cell types", "procedure": "as §4"}, "MM.1S cells": {"test_system": "MM.1S cells", "procedure": "(§5) A) Reversal of CCCP induced toxicity by either 10 μM BAPTA-AM or 50 μM of Z-VAD was investigated using trypan blue exclusion assays. The bars represent the average of triplicate samples +SD. B) ATP levels were assayed following 6 h of treatment with indicated concentrations of CCCP. The bars represent the average of triplicate samples +SD. C) Induction of UPR, activation of AMPK pathway and cleavage of caspase 3 was analyzed by western blots following 24 h treatment with indicated concentrations of CCCP in MM.1S and REH cell lines. β-Actin was used as a loading control. D) The quantification of phosphorylated AMPK and total AMPK bands in the previous panel was done using a Bio-Rad gel reader which employs Quality I software. The bars represent the fold increase in the ratio of p-AMPK/AMPK in treated versus untreated samples from three independent experiments +SD.\nas §2"}, "[6]": {"test_system": "MM cell lines (MM.1S, 8226, KMS-11)", "procedure": "Cytotoxicity assay: Cells were incubated for 24 h at 37° C. in 5% CO2 at which time drug treatments began and continued for 24 h. At this time cells were transferred to a tube followed by centrifugation at 400 g for 5 min. The pellets were resuspended in 1 ml of Hanks solution and analyzed by Vi-Cell (Beckman Coulter, Fullerton, Calif., USA) cell viability analyzer."}, "REH cells [7]": {"test_system": "REH cells", "assay": "Cytoplasmic Ca2+ (indo-1) after CCCP", "conditions": "10 μM CCCP", "procedure": "as §1\nMeasurement of cytoplasmic and mitochondrial calcium: Cytoplasmic Ca^2+ concentration was estimated by using the cell permeant ratiometric fluorochrome indo-1-AM (Invitrogen, Carlsbad, Calif., USA) while mitochondrial Ca^2+ was measured by X-Rhod-1-AM (Invitrogen, Carlsbad, Calif., USA). In the latter assay, to normalize mitochondrial Ca^2+ signal to mitochondria number, Mitotracker Green (Invitrogen, Carlsbad, Calif., USA) fluorescence was simultaneously analyzed. Experiments were performed in cells loaded with either 2.5 μM of indo-1 or 5 μM X-rhod-1 and 250 nM of Mitotracker at 37° C. for 45 min. Cells were, then, centrifuged at 400 g for 5 min and resuspended in their growth medium followed by distribution of 100 μl of aliquots into 96 well optical bottom plates (Nalge Nunc, Int., Rochester, N.Y., USA) and fluorescence was measured by Spectra Max Gemini Plus (Molecular Devices, Sunnyvale, Calif., USA). The average of triplicates from untreated samples was used as control reading and increase in cytoplasmic or mitochondrial Ca^2+ was calculated as percent increase from control samples."}, "REH cells [8]": {"test_system": "REH cells", "assay": "Western blot after 24 h CCCP (UPR, AMPK pathway, caspase 3)", "procedure": "as §5, §2"}}, "data": [{"compound": "N#CC(C#N)=NNc1cccc(Cl)c1", "note": "[CCCP]", "values": [{"measurement": "Δψm", "setting": "MM.1S and REH cell lines", "value": "significantly reduced in both cell types"}, {"measurement": "CHOP/GADD153 induction compared among the 3 MM cell lines", "setting": "[1]", "value": "more profound in MM.1S and 8226 as compared to KMS-11"}, {"measurement": "caspase 3 cleavage compared among the 3 MM cell lines", "setting": "[1]", "value": "more rapidly in MM.1S and 8226 versus KMS-11"}, {"measurement": "increase in cytoplasmic Ca2+ after mitochondrial inhibitor", "setting": "[2]", "value": "not seen in non-myeloma cell lines except for NALM6"}, {"measurement": "cytoplasmic Ca2+ after mitochondrial inhibitor", "setting": "[3]", "value": "immediate increase in cytoplasmic Ca^2+"}, {"measurement": "effect on mitochondrial Ca2+ uptake", "setting": "[3]; estimated from cytoplasmic Ca2+", "value": "equally inhibit mitochondrial Ca^2+ uptake"}, {"measurement": "cytotoxic potency compared to the other mitochondrial inhibitors", "setting": "[4]; 24 h, MM cells", "value": "equipotency in inducing cytotoxicity in MM cells"}, {"measurement": "order of sensitivity among MM cell lines", "setting": "[4]; 24 h treatment", "value": "greater in 8226 as compared to MM.1S cells"}, {"measurement": "cytotoxicity (cell death)", "setting": "[4]; 24 h treatment, all 4 MM cell lines", "value": "more toxic to multiple myeloma cell lines as compared to other cell types"}, {"measurement": "cytotoxicity at higher concentrations", "setting": "[5]", "value": "significant toxicity is induced in all cell types"}, {"measurement": "CCCP concentration at which caspase 3 starts to get cleaved", "setting": "MM.1S cells; 24 h, MM cells", "value": 5, "unit": "µM"}, {"measurement": "CCCP concentration giving significant induction of CHOP/GADD153 expression", "setting": "MM.1S cells; 24 h, MM.1S", "value": 2.5, "unit": "µM"}, {"measurement": "potency in upregulating CHOP/GADD153, MM versus B-cell leukemia", "setting": "MM.1S cells; FIG. 12c", "value": "four times more potent"}, {"measurement": "AMPK phosphorylation at higher doses", "setting": "MM.1S cells; MM.1S", "value": "suppressed"}, {"measurement": "eif2α phosphorylation and ATF4 upregulation", "setting": "MM.1S cells; MM.1S treated with CCCP", "value": "not detected"}, {"measurement": "cytotoxicity (cell death)", "setting": "[6]; 24 h, all 3 MM cell lines", "value": "more toxic to MM cells as compared to non-myeloma cells"}, {"measurement": "cell death compared among mitochondrial inhibitors", "setting": "[6]; concentrations of FIG. 13, caspase 3 cleavage and percent of cell death", "value": "more toxic than either antimycin A or oligomycin"}, {"measurement": "cytoplasmic Ca2+ levels directly after addition", "setting": "REH cells [7]", "value": "go up in both cell types"}, {"measurement": "cytoplasmic Ca2+ levels later (after clearance phase)", "setting": "REH cells [7]", "value": "go back to control levels"}, {"measurement": "CCCP concentration required for similar increase of CHOP/GADD153", "setting": "REH cells [8]; 24 h, REH", "value": "at least 10 μM"}, {"measurement": "AMPK phosphorylation at higher doses", "setting": "REH cells [8]; REH", "value": "continues to increase"}, {"measurement": "cleaved caspase 3", "setting": "REH cells [8]; REH, even at the 10 μM dose", "value": "no cleaved caspase 3 can be detected"}, {"measurement": "AMPK phosphorylation", "setting": "REH cells [8]; highest dose (10 μM) CCCP, REH compared to MM.1S", "value": "more phosphorylated"}]}]}
